Values joined by “and” are separate entries in the source; they are usually repeats but may differ in a detail not shown here. Equal entries are not always repeated. Records with an inconclusive call do not appear.
Test system: HT29 intrarenal xenograft, nude mice, tumor weight change
Test: NCI In Vivo Anticancer Drug Screen. Data for tumor model HT29;CX-1 Human Adenocarcinoma (MER+) (intrarenal inoculation) in NU/NU BALB/C (nude) mice
Conditions: endpoint: mean tumor weight change, higher = larger tumour
Experimental: The antitumor activity of compounds was measured in mice bearing transplantable tumors. Survival or tumor size were measured and the results are expressed as the measurement made in the treated group (T) divided by the measurement made in the vehicle treated control group (C). The tumor model used in this assay is HT29;CX-1 Human Adenocarcinoma (MER+) (intrarenal inoculation) in NU/NU BALB/C (nude) mice

[1] = dose: 150.0 mg/kg/injection, schedule: Q04DX004 (sc), vehicle: saline with Tween-80
[2] = dose: 300.0 mg/kg/injection, schedule: Q04DX004 (sc), vehicle: saline with Tween-80
[3] = dose: 600.0 mg/kg/injection, schedule: Q04DX004 (sc), vehicle: saline with Tween-80
[4] = dose: 1200.0 mg/kg/injection, schedule: Q04DX004 (sc), vehicle: saline with Tween-80
[5] = dose: 200.0 mg/kg/injection, schedule: Q04DX004 (sc), vehicle: saline with Tween-80
[6] = dose: 400.0 mg/kg/injection, schedule: Q04DX004 (sc), vehicle: saline with Tween-80

For `COc1cc2cc(c1Cl)N(C)C(=O)C[C@H](OC(=O)[C@H](C)N(C)C(C)=O)[C@]1(C)O[C@H]1[C@H](C)[C@@H]1C[C@@](O)(NC(=O)O1)[C@H](OC)C=C/C=C(\C)C2`, the T/C (dose: 25.0 micrograms/kg/injection, schedule: Q01DX010 (sc), vehicle: Klucel (hydroxypropylcellulose) (HPC)) was 315 % of control and the T/C (dose: 50.0 micrograms/kg/injection, schedule: Q01DX010 (sc), vehicle: Klucel (hydroxypropylcellulose) (HPC)) was 118 % of control and 310 % of control.
With `Nc1nc(N)c(N=O)c(Nc2ccc(Br)cc2)n1` the T/C [1] was 106 % of control, the T/C [2] was 83 % of control and the T/C [3] was 120 % of control. The T/C [4] was 115 % of control.
For `O=C1N[C@@H]2C(=C[C@H](O)[C@@H](O)[C@H]2O)c2cc3c(c(O)c21)OCO3`, the T/C (dose: 5.0 mg/kg/injection, schedule: Q04DX004 (sc), vehicle: saline with Tween-80) was 177 % of control.
With `Nc1ccn([C@@H](C=O)O[C@@H](C=O)CO)c(=O)n1` the T/C (dose: 50.0 mg/kg/injection, schedule: Q04DX004 (sc), vehicle: saline) was 117 % of control, the T/C (dose: 100.0 mg/kg/injection, schedule: Q04DX004 (sc), vehicle: saline) was 71 % of control and the T/C (dose: 200.0 mg/kg/injection, schedule: Q04DX004 (sc), vehicle: saline) was 113 % of control.
`Nc1nnc[se]1` was tested, and the T/C [5] was 64 % of control, the T/C [6] was 31 % of control and the T/C (dose: 800.0 mg/kg/injection, schedule: Q04DX004 (sc), vehicle: saline with Tween-80) was 23 % of control.
`O=CC(NC(=O)N(CCCl)N=O)C(O)C(O)C(O)CO` (stereo not given) was tested, and the T/C (dose: 1.5 mg/kg/injection, schedule: Q01DX010 (sc), vehicle: Klucel (hydroxypropylcellulose) (HPC)) was 45 % of control, the T/C (dose: 3.0 mg/kg/injection, schedule: Q01DX010 (sc), vehicle: Klucel (hydroxypropylcellulose) (HPC)) was 42 % of control and the T/C (dose: 6.0 mg/kg/injection, schedule: Q01DX010 (sc), vehicle: Klucel (hydroxypropylcellulose) (HPC)) was 35 % of control.
With `CC[C@@]1(O)C[C@H](OC2CC(N(C)C)C(OC3CC(O)C(OC4CCC(=O)C(C)O4)C(C)O3)C(C)O2)c2c(cc3c(c2O)C(=O)c2c(O)cccc2C3=O)[C@H]1C(=O)OC` (stereo not given in full) the T/C (dose: 1.0 mg/kg/injection, schedule: Q01DX010 (ip), vehicle: water) was 58 % of control and the T/C (dose: 2.0 mg/kg/injection, schedule: Q01DX010 (ip), vehicle: water) was 37 % of control.
For `Cn1cnc([N+](=O)[O-])c1S(=O)(=O)NCN1CCOCC1`, the T/C (dose: 100.0 mg/kg/injection, schedule: Q01DX010 (sc), vehicle: Klucel (hydroxypropylcellulose) (HPC)) was 80 % of control.
`CCNC=O` was tested, and the T/C (dose: 150.0 mg/kg/injection, schedule: Q01DX010 (ip), vehicle: suspension in saline) was 82 % of control, the T/C (dose: 300.0 mg/kg/injection, schedule: Q01DX010 (ip), vehicle: suspension in saline) was 42 % of control and the T/C (dose: 600.0 mg/kg/injection, schedule: Q01DX010 (ip), vehicle: suspension in saline) was 39 % of control.
For `CC1CCC(n2cnc3c(Cl)ncnc32)O1` (stereo not given), the T/C (dose: 150.0 mg/kg/injection, schedule: Q04DX004 (sc), vehicle: Klucel (hydroxypropylcellulose) (HPC)) was 76 % of control, the T/C (dose: 300.0 mg/kg/injection, schedule: Q04DX004 (sc), vehicle: Klucel (hydroxypropylcellulose) (HPC)) was 80 % of control and the T/C (dose: 600.0 mg/kg/injection, schedule: Q04DX004 (sc), vehicle: Klucel (hydroxypropylcellulose) (HPC)) was 64 % of control.
In the case of `CS(=O)(=O)c1ncc(Br)cn1`, the T/C (dose: 25.0 mg/kg/injection, schedule: Q01DX010 (sc), vehicle: saline with Tween-80) is reported as 106 % of control, the T/C (dose: 50.0 mg/kg/injection, schedule: Q01DX010 (sc), vehicle: saline with Tween-80) is reported as 123 % of control and the T/C (dose: 100.0 mg/kg/injection, schedule: Q01DX010 (sc), vehicle: saline with Tween-80) is reported as 185 % of control.
In the case of `COC(=O)[C@@]12OC[C@]34[C@H]([C@@H](O)[C@@H]1O)[C@@]1(C)CC(=O)C(O)=C(C)[C@@H]1C[C@H]3OC(=O)[C@H](OC(=O)/C=C(\C)C(C)C)[C@@H]24`, the T/C (dose: 0.5 mg/kg/injection, schedule: Q01DX010 (sc), vehicle: saline + alcohol) is reported as 35 % of control.
For `O=c1c(O)c(-c2cc(O)c(O)c(O)c2)oc2cc(O)cc(O)c12`, the T/C (dose: 1.5 mg/kg/injection, schedule: Q04DX004 (sc), vehicle: saline with Tween-80) was 105 % of control, the T/C (dose: 3.0 mg/kg/injection, schedule: Q04DX004 (sc), vehicle: saline with Tween-80) was 114 % of control and the T/C (dose: 6.0 mg/kg/injection, schedule: Q04DX004 (sc), vehicle: saline with Tween-80) was 107 % of control. The T/C (dose: 12.0 mg/kg/injection, schedule: Q04DX004 (sc), vehicle: saline with Tween-80) was 106 % of control, the T/C (dose: 50.0 mg/kg/injection, schedule: Q04DX004 (sc), vehicle: saline with Tween-80) was 63 % of control and the T/C (dose: 100.0 mg/kg/injection, schedule: Q04DX004 (sc), vehicle: saline with Tween-80) was 73 % of control. For the same compound, the T/C [5] was 77 % of control and the T/C [6] was 103 % of control.
For `CN(C)/N=N/c1nc[nH]c1C(N)=O`, the T/C (dose: 100.0 mg/kg/injection, schedule: Q04DX004 (ip), vehicle: saline) was 157 % of control and the T/C (dose: 150.0 mg/kg/injection, schedule: Q04DX004 (ip), vehicle: saline) was 75 % of control.
In the case of `CCN1C=C/C(=C\C=C/c2cc[n+](CC)c3ccccc23)c2ccccc21`, the T/C (dose: 0.5 mg/kg/injection, schedule: Q01DX010 (sc), vehicle: saline) is reported as 229 % of control.
In the case of `N#CC(=C1SCS1)[N+](=O)[O-]`, the T/C (dose: 3.0 mg/kg/injection, schedule: Q04DX004 (sc), vehicle: saline) is reported as 69 % of control and the T/C (dose: 6.0 mg/kg/injection, schedule: Q04DX004 (sc), vehicle: saline) is reported as 113 % of control.
`CN(CO)c1nc(N(C)CO)nc(N(C)CO)n1` was tested, and the T/C (dose: 6.25 mg/kg/injection, schedule: Q01DX010 (sc), vehicle: saline) was 100 % of control, the T/C (dose: 25.0 mg/kg/injection, schedule: Q01DX010 (sc), vehicle: saline) was 92 % of control and the T/C (dose: 100.0 mg/kg/injection, schedule: Q01DX010 (sc), vehicle: saline) was 6 % of control.
In the case of `CS(=O)(=O)OCCCNCCCOS(C)(=O)=O`, the T/C (dose: 75.0 mg/kg/injection, schedule: Q04DX004 (sc), vehicle: saline) is reported as 71 % of control.
With `CC(C)C(N)C(=O)Nc1nncs1` (stereo not given) the T/C (dose: 150.0 mg/kg/injection, schedule: Q04DX004 (sc), vehicle: saline) was 94 % of control, the T/C (dose: 300.0 mg/kg/injection, schedule: Q04DX004 (sc), vehicle: saline) was 74 % of control and the T/C (dose: 600.0 mg/kg/injection, schedule: Q04DX004 (sc), vehicle: saline) was 68 % of control.
With `NC(Cc1ccc(N(CCCl)CCCl)cc1)C(=O)O` (stereo not given) the T/C (dose: 5.0 mg/kg/injection, schedule: Q04DX004 (sc), vehicle: saline) was 46 % of control, the T/C (dose: 10.0 mg/kg/injection, schedule: Q04DX004 (sc), vehicle: saline) was 106 % of control and the T/C (dose: 20.0 mg/kg/injection, schedule: Q04DX004 (sc), vehicle: saline) was 47 % of control.
With `[Na+]` the T/C (dose: 150.0 mg/kg/injection, schedule: Q04DX004 (ip), vehicle: water) was 55 % of control, the T/C (dose: 300.0 mg/kg/injection, schedule: Q04DX004 (ip), vehicle: water) was 70 % of control and the T/C (dose: 600.0 mg/kg/injection, schedule: Q04DX004 (ip), vehicle: water) was 16 % of control. The T/C (dose: 1200.0 mg/kg/injection, schedule: Q04DX004 (ip), vehicle: water) was 76 % of control.
For `Cc1cc(N)c2ccccc2[n+]1CCCCCCCCCC[n+]1c(C)cc(N)c2ccccc21`, the T/C (dose: 0.38 mg/kg/injection, schedule: Q01DX010 (ip), vehicle: dextrose) was 101 % of control, the T/C (dose: 0.75 mg/kg/injection, schedule: Q01DX010 (ip), vehicle: dextrose) was 101 % of control and the T/C (dose: 1.5 mg/kg/injection, schedule: Q01DX010 (ip), vehicle: dextrose) was 81 % of control.
With `CCNC(C)(C)C(SSS)c1ccco1` (stereo not given) the T/C (dose: 75.0 mg/kg/injection, schedule: Q04DX004 (sc), vehicle: saline with Tween-80) was 121 % of control, the T/C [1] was 119 % of control and the T/C [2] was 91 % of control.
With `[N-]=[N+]=[N-]` the T/C (dose: 1.5 mg/kg/injection, schedule: Q04DX004 (ip), vehicle: water) was 79 % of control, the T/C (dose: 3.0 mg/kg/injection, schedule: Q04DX004 (ip), vehicle: water) was 90 % of control and the T/C (dose: 6.0 mg/kg/injection, schedule: Q04DX004 (ip), vehicle: water) was 59 % of control. For the same compound, the T/C (dose: 12.0 mg/kg/injection, schedule: Q04DX004 (ip), vehicle: water) was 62 % of control.
`O=C(Nc1cccc2c(OC(=O)C(Cl)Cl)c(N=Nc3ccc(S(=O)(=O)Nc4nccs4)cc3)cc(N=Nc3ccc(S(=O)(=O)Nc4nccs4)cc3)c12)C(Cl)Cl` (tested in a mixture with another compound) was tested, and the T/C [2] was 58 % of control, the T/C [3] was 89 % of control and the T/C [4] was 78 % of control. For the same compound, the T/C (dose: 2400.0 mg/kg/injection, schedule: Q04DX004 (sc), vehicle: saline with Tween-80) was 159 % of control.
